The values that follow are results of earlier work, collected in patent US6406894B1, “Process for preparing polyvalent and physiologically degradable carbohydrate-containing polymers by enzymatic glycosylation reactions and the use thereof for preparing carbohydrate building blocks” (Glycorex AB, priority 1992, dated 2002).

For this data set, the target named is T1, E-selectin-IgG (Homo sapiens, UniProt P16581).
T1 construct: soluble fusion proteins formed between the extracytoplasmic domain of E- or P-selectin together with the constant region of a human immunoglobulin of subclass IgG1; made in house; host or cells: COS-7 cells, transient transfection with DEAE-dextran; the culture supernatant was used and captured on plates coated with anti-human IgG
T1 sequence (P16581 with tags, fused parts or gaps): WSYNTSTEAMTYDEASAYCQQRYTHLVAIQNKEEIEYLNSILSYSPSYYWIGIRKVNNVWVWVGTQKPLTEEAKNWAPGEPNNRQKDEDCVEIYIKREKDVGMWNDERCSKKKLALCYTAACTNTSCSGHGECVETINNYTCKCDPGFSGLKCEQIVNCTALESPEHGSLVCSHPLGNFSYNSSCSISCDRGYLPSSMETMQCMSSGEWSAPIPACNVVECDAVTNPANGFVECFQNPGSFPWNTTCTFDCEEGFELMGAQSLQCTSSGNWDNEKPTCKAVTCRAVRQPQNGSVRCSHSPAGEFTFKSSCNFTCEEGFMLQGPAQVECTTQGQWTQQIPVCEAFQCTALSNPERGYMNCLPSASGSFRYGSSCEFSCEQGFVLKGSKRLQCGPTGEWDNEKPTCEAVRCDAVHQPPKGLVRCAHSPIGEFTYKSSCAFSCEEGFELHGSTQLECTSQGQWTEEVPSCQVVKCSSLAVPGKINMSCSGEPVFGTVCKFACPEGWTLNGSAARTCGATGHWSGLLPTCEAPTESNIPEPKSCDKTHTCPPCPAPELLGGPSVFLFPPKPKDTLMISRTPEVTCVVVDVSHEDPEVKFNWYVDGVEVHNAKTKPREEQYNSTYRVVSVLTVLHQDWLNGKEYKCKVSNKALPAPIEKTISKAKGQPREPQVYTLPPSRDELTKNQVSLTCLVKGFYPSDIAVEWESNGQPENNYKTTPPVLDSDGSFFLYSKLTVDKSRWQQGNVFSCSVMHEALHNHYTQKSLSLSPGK
The note with it: comparative value, c.f. EPA 93 119 098.7; read-out: Comparative value: IC50 of HL60 cell adhesion to E-selectin-IgG.

`CC(=O)NC1C(O)CC(OC2C(O)C(CO)OC(OC3C(CO)OC(OCCCCCCN)C(NC(C)=O)C3OC3OC(C)C(O)C(O)C3O)C2O)(C(=O)O)OC1C(O)C(O)CO` (stereo not shown) [Sialyl-Le^x—O(CH2)6NH2]: the IC50 was 1000 µM.
